According to US4931292A, “Method of preparing iron(III) phosphate compounds for iron fortification of food products” (EKA Nobel AB, priority 1986, dated 1990):
Entries after “also recorded” stand apart in the source; their conditions may differ.

Columns and labels:
[1] = humans; literature or background statement; cited from earlier work
[2] = Solubility in artificial gastric environment (0.1M HCl, pH 1, 37° C.); format: physicochemical; conditions: for % Solubility 10 min / % Solubility 30 min / % Solubility 60 min: 0.1M HCl, pH=1, 37° C.; for solubility at pH 1 / in 0.1M HCl / gastric environment (in words): pH 1 (0.1M HCl)
Protocol: Here, solubility tests for some commercially used iron(III)phosphates have also been included.
The compound examined in Example 1 was also measured as a reference substance (compound A)

[3] = Examination of bioavailability in humans: absorption of 55Fe-labelled iron compound and 59Fe-labelled native iron from iron-fortified buns; format: in vivo; conditions: for Absorption, Fortification: fortification iron (55Fe)
Protocol: The examination was carried out by the technique described in the above-mentioned paper by Hallberg et al.
The iron compound to be tested is labelled with radioactive iron, ^55 Fe, in the synthesis of the compound used. This iron is used to fortify flour from which buns are made by standard procedures, for example as follows: ______________________________________ Ingredients Parts by weight ______________________________________ wheat-flour 100 sugar 3.5 salt 1.0 yeast 6.5 water 83 iron source 6.5 ^- 10^-3 ______________________________________
The iron occurring naturally (native iron) in wheat-flour is labelled by adding tracer amounts of ^59 Fe-labelled iron(III)chloride. The buns are thus made of flour which is labelled with two different radioactive isotopes.
The ingredients are mixed, and the dough is allowed to rise for 30 minutes. After the usual kneading, the dough is placed in small aluminium baking tins where the dough pieces are allowed to rise for another 30 minutes. The dough pieces in the baking tins are subsequently baked at a temperature of 250° C. for 10 minutes
These double-labelled buns are served a group of test subjects, for breakfast with coffee, margarine and marmalade two successive mornings after a night's fast. No food or beverage is allowed for three hours after breakfast. Two weeks after the last breakfast, blood tests are made to measure the occurrence of ^55 Fe and ^59 Fe in blood. Furthermore,the totally absorbed amount of ^59 Fe in the body is measured by a so-called total-body counter Via the ratio of ^59 Fe to ^55 Fe in blood samples, also the totally absorbed amount of ^55 Fe can be determined.
Subsequently, a reference solution is administered, consisting of ^59 Fe-labelled iron(II)sulphate and ascorbic acid at two successive breakfasts after a night's fast. No food or beverage is allowed for three hours thereafter. Another two weeks later, a new total-body measurement is made to measure the absorption of the reference dose. The reference solution is administered to make it possible to carry out corrections with regard to differences in the iron absorbing capability of the different test subjects.
The amount of ^59 Fe which is added as ^59 FeCl3 to the wheat-flour, isotope-labels by so-called isotopic exchange all biologically available nonheme iron (=non-blood iron) in the meals analysed, i.e. on the one hand the native iron and, on the other hand, the part of the fortification iron which is dissolved. However, that part of the fortification iron which is not dissolved in the gastrointestinal tract, is not labelled. […]

[4] = 40 g buns, 0.2 mg native iron, 2.2 mg fortification iron, ten persons

| Compound | absorbability / bioavailability [1] | % Solubility 10 min [2] [%] | % Solubility 30 min [2] [%] | % Solubility 60 min [2] [%] | solubility at pH 1 / in 0.1M HCl / gastric environment (in words) [2] | also measured |
| --- | --- | --- | --- | --- | --- | --- |
| O=P([O-])([O-])[O-].[Fe+3] [iron(III)orthophosphate] | questionable in respect to the bioavailability of iron |  |  |  |  |  |
| FeH2 Na(PO4)2 .multidot.0.5H2 O [Compound D] |  | 61 | 92 | 100 | approximately the same good solubility properties as the ammonium-containing compound A |  |
| Fe3 H8 K(PO4)6 .multidot.6H2 O [Compound E] |  | 5 | 39 | 72 | low initial solubility but reached, after some time, relatively good values |  |
| Fe3 H8 (NH4)(PO4)6 .multidot.6H2 O [Compound A] |  | 86 | 100 | 100 |  | Relative bioavailability 55Fe/59Fe [3, 4]: 0.63 ± 0.04; Absorption, Fortification [3, 4]: 3.3%; bioavailability (in words) ([3]; humans): far better bioavailability than both the commercial fortifying agent which is to date most frequently used, i.e. iron powder, and the known commercial fortifying agent which, in structural respect, is its closest relation, i.e. common iron(III)phosphate |
| O=S(=O)([O-])[O-].[Fe+2] [iron(II)sulphate] | highest absorbability; also recorded: high bioavailability in the human body |  |  |  |  |  |
| O=P([O-])([O-])OP(=O)([O-])O.[Fe+2].[Na+] [sodium iron pyrophosphate] | questionable in respect to the bioavailability of iron |  |  |  |  |  |
| O=P([O-])([O-])[O-].[Fe+3] [Common iron(III)phosphate, iron(III)phosphate, reference compound] |  |  |  |  |  | Absorption, Fortification ([3]; 60 g buns, 0.5 mg native iron, 3 mg fortification iron, ten persons): 1.1% |
| Fe5 H8 Na4 (PO4)9 .multidot.10H2 O [Compound C] |  | 70 | 93 | 100 | approximately the same good solubility properties as the ammonium-containing compound A |  |
| FeH5 Na(PO4)3 .multidot.H2 O [Compound B] |  | 82 | 97 | 100 | approximately the same good solubility properties as the ammonium-containing compound A |  |
